Test results from US8399465B2, “Compounds with two fused bicyclic heteroaryl moieties as modulators of leukotriene A4 hydrolase” (Janssen Pharmaceutica NV, priority 2009, dated 2013).
Structures can show the parent of a compound that is named as a salt. Where two headings read alike, the source gives them in different places.

Legend:
[1] = system: arachidonic acid-induced neutrophil influx in murine ear tissue; assay: Murine arachidonic acid-induced inflammation model: neutrophil influx (myeloperoxidase) in ear; format: in vivo, Balb/c mice; settings: Mus musculus, read-out: % Inh. MPO
Procedure: (§1) Assay 3: Murine Arachidonic Acid-Induced Inflammation Model
(§2) LTA4H inhibitor compounds of the present invention were dissolved in 20% cyclodextran/H2O at a concentration of 3 mg/mL. The solutions were administered by oral gavage to female Balb/c mice weighing approximately 20 grams each (0.2 mL per mouse, 30 mg of LTA4H inhibitor compound per kg). Sixty minutes after being administered an LTA4 inhibitor, each mouse received topical application of 20 μL of arachidonic acid (100 mg/mL in acetone) to the left ear and 20 μL of acetone only to the right ear. After 3 h, the mice were sacrificed, blood was withdrawn in heparinized syringes, and 8 mm ear biopsies were taken. Ear biopsies were weighed to determine edema and then frozen at −80° C. until needed for determination of neutrophil influx.
Neutrophil influx was quantified by measuring the activity of myeloperoxidase (MPO), a neutrophil-specific enzyme. […] Debris was removed by centrifugation at 14000×g for 10 min. […] The microtiter plate contents were held at room temperature until the sample with the highest concentration of MPO reached an absorbance value of 0.4 at 650 nm. The reaction was stopped by addition of 50 μL 1 M H2SO4 to each sample well, and the myeloperoxidase activity in each sample was determined from the absorbance at […]. The background value from the right ear, treated only with acetone, was subtracted from that for the left ear, treated with arachidonic acid in acetone, for each animal. The percent inhibition of neutrophil influx (% Inh. MPO) by compounds of the invention was determined by comparison to animals treated identically, except that the solution administered by oral gavage was devoid of inhibitor compound. All compounds were assayed in their free base form.

[2] = system: LTB4 production in murine blood (LTA4H); assay: LTB4 production by calcium ionophore-stimulated murine blood for LTA4H inhibitor activity; format: cell-based, CD-1 mice; settings: Mus musculus; murine blood diluted 1 in 15, A23187 stimulated; single determination or average; mark after value = form tested: ′ free base, ″ hydrochloride, ^ formate; read-out: IC50
Method in brief: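 Heparinized blood from CD-1 mice was preincubated with compound for 15 min at 37° C, then stimulated with calcium ionophore A23187 (final 7 μg/mL) for 30 min. Centrifugation stopped the reaction, and LTB4 in the supernatant was measured by enzyme immunoassay. Values are single determinations or means of two or more.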

[3] = target: T1, recombinant human LTA4 hydrolase (rhLTA4H) (Homo sapiens, UniProt P09960); assay: Recombinant human LTA4 hydrolase assay for LTA4 hydrolase inhibitor activity; format: biochemical; settings: rhLTA4H, LTB4 by immunoassay; single determination or average of two or more; mark after value = form tested: ′ free base, ″ hydrochloride, ^ formate; read-out: IC50
T1 construct: made in house; host or cells: Spodoptera frugiperda (Sf-9) cells, baculovirus (pFastBac1)
T1 sequence (P09960 1-611): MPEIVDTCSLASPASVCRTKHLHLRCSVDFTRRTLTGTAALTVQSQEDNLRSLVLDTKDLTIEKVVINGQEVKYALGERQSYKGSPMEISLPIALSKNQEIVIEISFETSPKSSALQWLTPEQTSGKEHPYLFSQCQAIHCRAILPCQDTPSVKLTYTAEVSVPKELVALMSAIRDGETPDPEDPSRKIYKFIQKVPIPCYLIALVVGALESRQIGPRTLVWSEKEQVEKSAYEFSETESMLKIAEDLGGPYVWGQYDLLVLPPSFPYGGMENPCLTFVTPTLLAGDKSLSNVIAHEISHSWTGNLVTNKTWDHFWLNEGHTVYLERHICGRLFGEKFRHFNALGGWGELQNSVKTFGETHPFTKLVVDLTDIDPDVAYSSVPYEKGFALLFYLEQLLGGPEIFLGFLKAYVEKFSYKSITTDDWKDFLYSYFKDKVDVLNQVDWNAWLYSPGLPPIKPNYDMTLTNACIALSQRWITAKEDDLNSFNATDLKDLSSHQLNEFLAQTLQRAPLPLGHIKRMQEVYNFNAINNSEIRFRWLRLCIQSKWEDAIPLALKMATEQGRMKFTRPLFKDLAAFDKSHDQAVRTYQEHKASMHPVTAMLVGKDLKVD
Method in brief: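 Baculovirus/Sf-9-expressed human LTA4H (10 ng) was preincubated 10 min at rt with compound in assay buffer (10% DMSO in compound dilution), then reacted 30 min at rt with LTA4 free acid made from its methyl ester. LTB4 produced was measured by ELISA after dilution; IC50 from non-linear regression, single or averaged determinations.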

[4] = system: ex vivo calcium ionophore-stimulated LTB4 production in whole blood; assay: Murine arachidonic acid-induced inflammation model: ex vivo stimulated LTB4 production in blood; set-up: species or system Balb/c mice; settings: Mus musculus; 30 mg/kg oral gavage; blood diluted 1:1, A23187 stimulated ex vivo; percent inhibition of LTB4 production; read-out: % Inh. LTB4
Procedure: as §1, §2
The microtiter plate contents were incubated for 30 min at 37° C. in a humidified incubator. The reaction was terminated by centrifugation (833×g, 10 min at 4° C.). Supernatants were analyzed for LTB4 by a commercially available enzyme-linked immunoassay (Cayman Chemical Co.) in accordance with the manufacturer's instructions. The percent inhibition of ex vivo stimulated LTB4 production (% Inh. LTB4) was determined by comparison to animals treated identically except that the solution administered by oral gavage was devoid of inhibitor compound.

[5] = 30 mg/kg oral gavage, 60 min before topical arachidonic acid, ear biopsy after 3 h, percent inhibition of neutrophil influx

SMILES	IC50 [2]	IC50 [3]	inhibition at 30 mg/kg [1, 5]	inhibition at 30 mg/kg [4]	inhibition at 30 mg/kg ([1]; Neutrophil)
CC(=O)N1CCCN(C(=O)c2coc3cc(Oc4nc5ncccc5s4)ccc23)CC1 [Example 372, 1-{4-[6-(Thiazolo[4,5-b]pyridin-2-yloxy)-benzofuran-3-carbonyl]-[1,4]diazepan-1-yl}-ethanone]	47 nM	30 nM	53%	62%	–
NC(=O)C1CCN(Cc2coc3cc(Oc4nc5ncccc5s4)ccc23)CC1 [Example 213, 1-[6-(Thiazolo[4,5-b]pyridin-2-yloxy)-benzofuran-3-ylmethyl]-piperidine-4-carboxylic acid amide]	25 nM	5 nM	92%	80%	–
NC(=O)N[C@H]1C[C@H]2CC[C@@H](C1)N2Cc1cc2cc(Oc3nc4ncccc4s3)ccc2o1 [Example 103, meso-endo-N-{8-[5-(Thiazolo[4,5-b]pyridin-2-yloxy)-benzofuran-2-ylmethyl]-8-aza-bicyclo[3.2.1]oct-3-yl}-urea]	132 nM	4 nM	18%	0%	–
CC(=O)N1CCN(Cc2coc3cc(Oc4nc5ncccc5s4)ccc23)CC1 [Example 196, 1-{4-[6-(Thiazolo[4,5-b]pyridin-2-yloxy)-benzofuran-3-ylmethyl]-piperazin-1-yl}-ethanone formate]	38 nM	11 nM	–	91%	93%
CC(=O)N[C@H]1C[C@H]2CC[C@@H](C1)N2Cc1cc2ccc(Oc3nc4ncccc4s3)cc2o1 [Example 118, meso-endo-N-{8-[6-(Thiazolo[4,5-b]pyridin-2-yloxy)-benzofuran-2-ylmethyl]-8-aza-bicyclo[3.2.1]oct-3-yl}-acetamide]	50 nM	23 nM	97%	89%	–
O=C(O)C1CCN(Cc2cc3ccc(Oc4nc5ccccc5s4)cc3o2)CC1 [Example 77, 1-[6-(Benzothiazol-2-yloxy)-benzofuran-2-ylmethyl]-piperidine-4-carboxylic acid]	30 nM	35 nM	77%	85%	–
CC(=O)N1C[C@H]2CC[C@@H](C1)N2Cc1cc2ccc(Oc3nc4ncccc4s3)cc2o1 [Example 119, meso-1-{8-[6-(Thiazolo[4,5-b]pyridin-2-yloxy)-benzofuran-2-ylmethyl]-3,8-diaza-bicyclo[3.2.1]oct-3-yl}-ethanone]	220 nM	36 nM	83%	78%	–
CC(=O)N[C@H]1C[C@H]2CC[C@@H](C1)N2Cc1cc2ccc(Oc3nc4ncccc4s3)cc2s1 [Example 135, meso-endo-N-{8-[6-(Thiazolo[4,5-b]pyridin-2-yloxy)-benzo[b]thiophen-2-ylmethyl]-8-aza-bicyclo[3.2.1]oct-3-yl}-acetamide]	110 nM	3 nM	42%	85%	–

Now from value to molecule, other results behind:

IC50 [2]	IC50 [3]	SMILES	inhibition at 30 mg/kg [1, 5]	inhibition at 30 mg/kg [4]	inhibition at 30 mg/kg ([1]; Neutrophil)
210 nM	36 nM	CC(=O)N1C[C@@H]2C[C@H]1CN2Cc1cc2ccc(Oc3nc4ncccc4s3)cc2o1 [Example 168, (1S,4S)-1-{5-[6-(Thiazolo[4,5-b]pyridin-2-yloxy)-benzofuran-2-ylmethyl]-2,5-diaza-bicyclo[2.2.1]hept-2-yl}-ethanone]	74%	70%	–
21 nM	1 nM	CC(=O)N[C@H]1C[C@@H]2C[C@H]1CN2Cc1coc2cc(Oc3nc4ncccc4s3)ccc12 [Example 187, (1S,4S,5S)—N-{2-[6-(Thiazolo[4,5-b]pyridin-2-yloxy)-benzofuran-3-ylmethyl]-2-aza-bicyclo[2.2.1]hept-5-yl}-acetamide]	88%	83%	–
70 nM	42 nM	CN(C)Cc1cc2cc(Oc3nc4ncccc4s3)ccc2o1 [Example 112, Dimethyl-[5-(thiazolo[4,5-b]pyridin-2-yloxy)-benzofuran-2-ylmethyl]-amine]	17%	56%	–
23 nM	3 nM	CC(=O)N1C[C@@H]2CC[C@H]1CN2Cc1cc2cc(Oc3nc4ncccc4s3)ccc2o1 [Example 169, meso-1-{5-[5-(Thiazolo[4,5-b]pyridin-2-yloxy)-benzofuran-2-ylmethyl]-2,5-diaza-bicyclo[2.2.2]oct-2-yl}-ethanone]	92%	85%	–
276 nM	65 nM	CC(=O)N1C[C@H]2C[C@@H]1CN2Cc1cc2ccc(Oc3nc4ncccc4s3)cc2o1 [Example 107, (1R,4R)-1-{5-[6-(Thiazolo[4,5-b]pyridin-2-yloxy)-benzofuran-2-ylmethyl]-2,5-diaza-bicyclo[2.2.1]hept-2-yl}-ethanone]	82%	75%	–
18 nM	6 nM	NC(=O)N1CCN(Cc2coc3cc(Oc4nc5ncccc5s4)ccc23)CC1 [Example 239, 4-[6-(Thiazolo[4,5-b]pyridin-2-yloxy)-benzofuran-3-ylmethyl]-piperazine-1-carboxylic acid amide]	90%	71%	–
84 nM	25 nM	CC(=O)N1C[C@@H]2C[C@H]1CN2C(=O)c1coc2cc(Oc3nc4ncccc4s3)ccc12 [Example 371, (1S,4S)-1-{5-[6-(Thiazolo[4,5-b]pyridin-2-yloxy)-benzofuran-3-carbonyl]-2,5-diaza-bicyclo[2.2.1]hept-2-yl}-ethanone]	82%	54%	–
28 nM	3 nM	NC(=O)C1CCCN(Cc2coc3cc(Oc4nc5ncccc5s4)ccc23)C1 (stereo in doubt) [Example 216, (3S)-1-[6-(Thiazolo[4,5-b]pyridin-2-yloxy)-benzofuran-3-ylmethyl]-piperidine-3-carboxylic acid amide]	87%	87%	–
6 nM	1 nM	COC[C@@H]1CCCN1Cc1coc2cc(Oc3nc4ncccc4s3)ccc12 [Example 186, (2S)-2-[3-(2-Methoxymethyl-pyrrolidin-1-ylmethyl)-benzofuran-6-yloxy]-thiazolo[4,5-b]pyridine]	79%	86%	–
